Measured values reported in patent US20200031820A1, “3-CARBOXYLIC ACID PYRROLES AS NRF2 REGULATORS” (GLSXOSMITHKLINE INTELLECTUAL PROPERTY DEVELOPMENT LIMITED, priority 2016, published 2020).

Assays:
[1] = system: NQO1 specific enzyme activity in BEAS-2B cells (marker for NRF2 activation); assay: Beas2B NQO1 MTT Assay; assay type: cell-based; conditions: Homo sapiens, NQO1 specific activity induction, 48 hours with compound
Source text: NAD(P)H:quinone oxidoreductase 1 (NQO1), also called DT diaphorase, is a homodimeric FAD-containing enzyme that catalyses obligatory NAD(P)H-dependent two-electron reductions of quinones and protects cells against the toxic and neoplastic effects of free radicals and reactive oxygen species arising from one-electron reductions. The transcription of NQO1 is finely regulated by NRF2, and thus NQO1 activity is a good marker for NRF2 activation. On day one, frozen BEAS-2B cells (ATCC) were thawed in a water bath, counted, and re-suspended at a concentration of 250,000 cells/mL. Fifty microliters of cells were plated in 384 well black clear-bottomed plates. Plates were incubated at 37° C., 5% CO2 overnight. On day two, plates were centrifuged and 50 nL of compound or controls were added to the cells. Plates were then incubated at 37° C., 5% CO2 for 48 hours. On day four, medium was aspirated from the plate and crude cell lysates were made by adding 13 uL of 1× Cell Signaling Technologies lysis buffer with 1 Complete, Mini, EDTA-free Protease Inhibitor Tablet (Roche) for each 10 mL of lysis buffer. After lysis plates were incubated for 20 minutes at room temperature. Two microliters of lysate were removed for use in Cell Titer Glo assay (Promega) and MTT cocktail was prepared (Prochaska et. al. 1998) for measurement of NQO1 activity. Fifty microliters of MTT cocktail was added to each well, plate was centrifuged, and analysed on an Envision plate reader (Perkin Elmer) using Absorbance 570 nm label for 30 minutes. Product formation was measured kinetically and the pEC50 of NQO1 specific activity induction was calculated by plotting the change in absorbance (Delta OD/min) versus the log of compound concentration followed by 3-parameter fitting.
EC50s <1 nM (+++++), EC50s 10 nM-1 nM (++++), EC50s 10-100 nM (+++), EC50s 100 nM-1 μM (++), EC50s 1-10 μM (+), EC50s >10 μM (−), or were not determined (ND).

[2] = molecular target: T1, full length NRF2 protein and full length Keap1 protein (Homo sapiens, UniProt Q14145); assay: NRF2-Keap1 TR-FRET Low Protein Assay; assay type: binding; conditions: Keap1 FlagHis, biotin-NRF2
T1 construct: full length NRF2 protein and full length Keap1 protein; His
T1 sequence (Q14145 whole entry): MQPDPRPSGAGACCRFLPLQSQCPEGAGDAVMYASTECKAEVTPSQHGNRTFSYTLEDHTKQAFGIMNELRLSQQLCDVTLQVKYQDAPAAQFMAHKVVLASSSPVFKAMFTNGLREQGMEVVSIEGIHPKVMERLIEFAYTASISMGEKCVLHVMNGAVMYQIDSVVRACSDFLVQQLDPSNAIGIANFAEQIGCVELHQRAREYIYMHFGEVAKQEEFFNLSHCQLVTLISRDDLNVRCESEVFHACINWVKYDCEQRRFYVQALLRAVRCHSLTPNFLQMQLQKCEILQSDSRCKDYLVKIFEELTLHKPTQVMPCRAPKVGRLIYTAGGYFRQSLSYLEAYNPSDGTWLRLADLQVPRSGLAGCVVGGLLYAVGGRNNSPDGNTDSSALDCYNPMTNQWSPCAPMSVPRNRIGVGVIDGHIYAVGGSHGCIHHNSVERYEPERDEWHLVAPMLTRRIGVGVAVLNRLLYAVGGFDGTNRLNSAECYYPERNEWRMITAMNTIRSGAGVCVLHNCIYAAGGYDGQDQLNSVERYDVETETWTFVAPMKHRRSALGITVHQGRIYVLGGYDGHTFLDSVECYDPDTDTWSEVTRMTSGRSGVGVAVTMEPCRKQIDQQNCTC
Source text: NRF2-Keap1 TR-FRET Low Protein Assay In the NRF2-Keap1 TR-FRET (time-resolved fluorescence resonance energy transfer) low protein assay, full length NRF2 protein and full length Keap1 protein (Keap1 exists a dimer) are used. The assay detects a compound's ability to displace the binding of Keap1 FlagHis with biotinylated Avi-NRF2 protein. Biotin-NRF2 binds to streptavidin-europium (a component of the detection mix) and Keap1 FlagHis is recognized by anti-Flag APC (allophycocyanin) antibody (also a component of the detection mix). If binding occurs between the two proteins, there will be an energy transfer from the Eu+3 (donor) at 615 nm to the APC (acceptor) at 665 nm. A potential NRF2 inhibitor will cause a reduction in the TR-FRET signal by interfering with the binding of Keap1 to NRF2.
Ten nanoliters of 100× compound dose response curves (serial 3-fold dilutions) in DMSO were stamped using an Echo liquid handling system (Labcyte) into 384-well, low volume, black assay plates (Greiner, #784076), with DMSO in columns 6 and 18. An additional 90 nl DMSO was added to each well, to bring the total volume to 100 nl per well. The top concentration of compound was located in columns 1 and 13, with the serial dilutions going across the row. All reagents were diluted in assay buffer (50 mM Tris, pH 8.0, 5 mM MgCl2, 100 mM NaCl, 0.005% BSA, 1 mM DTT, and 2 mM CHAPS. The BSA, DTT, and CHAPS were added to the assay buffer on the day of assay. Using a Multidrop Combi (Thermo Electron Corporation) equipped with a metal tip dispenser, 5 ul of 1.25 nM Keap1 FlagHis protein was added to all wells of the compound plate, with the exception of the wells in column 18. Wells in column 18 received 5 ul of assay buffer instead. Plates were centrifuged at 500 rpm for 1 minute, covered with a plate lid, and incubated at 37° C. for 2.25 hours. Plates were then removed from the incubator and allowed to cool to RT for 15 minutes. Five microliters of 2.5 nM biotin-NRF2 protein was then added to all wells of the plates and the plates were spun at 500 rpm for 1 minute, followed by incubating at 4° C. for 1.25 hours. The plates were then allowed to warm to RT for 15 minutes, followed by the addition of 10 ul of detection mix (1 nM Streptavidin Eu+ W1024 and 5 ug/ml mouse anti-DYKDDDDK IgG conjugated to SureLight APC antibody; both from Columbia Biosciences) to all wells. Plates were spun at 500 rpm for 1 minute, incubated for 1 hour at RT, and read on an Envision plate reader using a 320 nm excitation filter and 615 nm and 665 nm emission filters. Compound response (% inhibition) and potency (pIC50) were calculated based on the ratio of the two emissions (665 nm/615 nm) and then the transformed data is normalized against controls in the assay (control 1=1% DMSO in the presence of NRF2 and Keap1 protein and control 2=1% DMSO in the presence of only the NRF2 protein). Data analysis was handled using the software package Abase XE (Surrey, United Kingdom). The % inhibition values were calculated from the ratio (transformed) data by the equation:
100−(100*(compound response−average control 2)/(average control 1−average control2)).
For calculation of pIC50s, Abase XE used a four-parameter equation.
IC50s<10 nM (+++++), IC50s 10-100 nM (++++), IC50s 100 nM-1 uM (+++), IC50s 1-10 uM (++). & IC50s 10 uM-100 uM (+), IC50s >100 uM (−), or were not determined (ND).

Row | EC50 [2] | Compound | EC50 [1]
1 | 10000 to 100000 nM | C[C@H]1Cc2ccc(C(F)(F)F)cc2S(=O)(=O)N(C2CCc3c2cccc3-n2ccc(C(=O)O)c2C2CC2)C1 (mixture of isomers) [Example 12, 2-Cyclopropyl-1-(1-((S)-4-methyl-1,1-dioxido-8-(trifluoromethyl)-4,5-dihydrobenzo[f][1,2]thiazepin-2(3H)-yl)-2,3-dihydro-1H-inden-4-yl)-1H-pyrrole-3-carboxylic acid] | 100 to 1000 nM
2 | 10 to 100 nM | C[C@H]1Cc2ccc(C(F)(F)F)cc2S(=O)(=O)N(Cc2cccc(-n3ccc(C(=O)O)c3[C@@H]3C[C@H]3c3cn(C)nn3)c2)C1 (racemic) [Example 1, 1-(3-(((S)-4-Methyl-1,1-dioxido-8-(trifluoromethyl)-4,5-dihydrobenzo[f]-[1,2]thiazepin-2(3H)-yl)methyl)phenyl)-2-(trans-2-(1-methyl-1H-1,2,3-triazol-4-yl)cyclopropyl)-1H-pyrrole-3-carboxylic acid] | 10 to 100 nM
3 | 10 to 100 nM | C[C@H]1Cc2cc(C(F)(F)F)ccc2S(=O)(=O)N(Cc2cccc(-n3ccc(C(=O)O)c3[C@@H]3C[C@H]3c3cn(C)nn3)c2)C1 (racemic) [Example 2, 1-(3-(((S)-4-methyl-1,1-dioxido-7-(trifluoromethyl)-4,5-dihydrobenzo[f][1,2]thiazepin-2(3H)-yl)methyl)phenyl)-2-(trans-2-(1-methyl-1H-1,2,3-triazol-4-yl)cyclopropyl)-1H-pyrrole-3-carboxylic acid] | 10 to 100 nM
4 | 100 to 1000 nM | Cc1c(CN2C[C@@H](C)Cc3ccc(C(F)(F)F)cc3S2(=O)=O)cccc1-n1ccc(C(=O)O)c1[C@@H]1C[C@H]1c1cn(C)nn1 (racemic) [Example 10, rac-2-(trans-2-(1-methyl-1H-1,2,3-triazol-4-yl)cyclopropyl)-1-(2-methyl-3-(((S)-4-methyl-1,1-dioxido-8-(trifluoromethyl)-4,5-dihydrobenzo[f][1,2]thiazepin-2(3H)-yl)methyl)phenyl)-1H-pyrrole-3-carboxylic acid] | 100 to 1000 nM
5 | 1000 to 10000 nM | Cc1ccc(CN2C[C@@H](C)Cc3ccc(C(F)(F)F)cc3S2(=O)=O)cc1-n1ccc(C(=O)O)c1[C@@H]1C[C@H]1c1cn(C)nn1 (racemic) [Example 11, rac-2-(trans-2-(1-methyl-1H-1,2,3-triazol-4-yl)cyclopropyl)-1-(2-methyl-5-(((S)-4-methyl-1,1-dioxido-8-(trifluoromethyl)-4,5-dihydrobenzo[f][1,2]thiazepin-2(3H)-yl)methyl)phenyl)-1H-pyrrole-3-carboxylic acid] | 100 to 1000 nM
6 | 100 to 1000 nM | C[C@H](Oc1cccc(-c2cccc(-n3ccc(C(=O)O)c3[C@@H]3C[C@H]3c3cn(C)nn3)c2)c1)C1CCCCC1 (racemic) [Example 13, 1-(3′-((S)-1-Cyclohexylethoxy)-[1,1′-biphenyl]-3-yl)-2-(trans-2-(1-methyl-1H-1,2,3-triazol-4-yl)cyclopropyl)-1H-pyrrole-3-carboxylic acid] | 10 to 100 nM
7 | 10 to 100 nM | CCC[C@@H]1CCCCN1C(=O)c1cccc(-c2cccc(-n3ccc(C(=O)O)c3[C@@H]3C[C@H]3c3cn(C)nn3)c2)c1 (racemic) [Example 14, 2-(trans-2-(1-methyl-1H-1,2,3-triazol-4-yl)cyclopropyl)-1-(3′-((R)-2-propylpiperidine-1-carbonyl)-[1,1′-biphenyl]-3-yl)-1H-pyrrole-3-carboxylic acid] | 10 to 100 nM
8 | 10 to 100 nM | CCC[C@@H]1CCCCN1C(=O)c1cccc(-c2cccc(-n3ccc(C(=O)O)c3[C@@H]3C[C@H]3c3cn(C)nn3)c2)c1F (racemic) [Example 15, 1-(2′-fluoro-3′-((R)-2-propylpiperidine-1-carbonyl)-[1,1′-biphenyl]-3-yl)-2-(trans-2-(1-methyl-1H-1,2,3-triazol-4-yl)cyclopropyl)-1H-pyrrole-3-carboxylic acid] | 1 to 10 nM
9 | 100 to 1000 nM | Cn1cc([C@@H]2C[C@H]2c2c(C(=O)O)ccn2-c2cccc(CN3Cc4cc(F)ccc4OC(C)(C)C3)c2)nn1 (racemic) [Example 19] | 100 to 1000 nM
10 | 100 to 1000 nM | Cn1cc([C@@H]2C[C@H]2c2c(C(=O)O)ccn2-c2cccc(CN3Cc4cc(Br)ccc4OC(C)(C)C3)c2)nn1 (racemic) [Example 20] | 100 to 1000 nM
11 | 100 to 1000 nM | Cn1cc([C@@H]2C[C@H]2c2c(C(=O)O)ccn2-c2cccc(CN3Cc4ccccc4CC(C)(C)C3)c2)nn1 (racemic) [Example 21] | 100 to 1000 nM
12 | 10 to 100 nM | CCCC[C@H]1Cc2ccccc2S(=O)(=O)N(Cc2cccc(-n3ccc(C(=O)O)c3[C@@H]3C[C@H]3c3cn(C)nn3)c2)C1 [Example 3, 1-(3-(((S)-4-butyl-1,1-dioxido-4,5-dihydrobenzo[f][1,2]thiazepin-2(3H)-yl)methyl)phenyl)-2-((1R,2R)-2-(1-methyl-1H-1,2,3-triazol-4-yl)cyclopropyl)-1H-pyrrole-3-carboxylic acid] | 10 to 100 nM
13 | 10 to 100 nM | CCCC[C@H]1Cc2ccc(C(F)(F)F)cc2S(=O)(=O)N(Cc2cccc(-n3ccc(C(=O)O)c3[C@@H]3C[C@H]3c3cn(C)nn3)c2)C1 [Example 6, 1-(3-(((S)-4-butyl-1,1-dioxido-8-(trifluoromethyl)-4,5-dihydrobenzo[f][1,2]thiazepin-2(3H)-yl)methyl)phenyl)-2-((1R,2R)-2-(1-methyl-1H-1,2,3-triazol-4-yl)cyclopropyl)-1H-pyrrole-3-carboxylic acid] | < 1 nM
14 | 10 to 100 nM | CC[C@H]1Cc2cc(C(F)(F)F)ccc2S(=O)(=O)N(Cc2cccc(-n3ccc(C(=O)O)c3[C@@H]3C[C@H]3c3cn(C)nn3)c2)C1 [Example 7, 1-(3-(((S)-4-ethyl-1,1-dioxido-7-(trifluoromethyl)-4,5-dihydrobenzo[f][1,2]thiazepin-2(3H)-yl)methyl)phenyl)-2-((1R,2R)-2-(1-methyl-1H-1,2,3-triazol-4-yl)cyclopropyl)-1H-pyrrole-3-carboxylic acid] | 1 to 10 nM
